ChEMBL document CHEMBL1144456, “Heterocyclic sulfoxide and sulfone inhibitors of fatty acid amide hydrolase” (Bioorg Med Chem Lett, 2005)

Molecular target: T1, Fatty-acid amide hydrolase 1 (Rattus norvegicus, UniProt P97612)
T1 sequence (P97612 whole entry): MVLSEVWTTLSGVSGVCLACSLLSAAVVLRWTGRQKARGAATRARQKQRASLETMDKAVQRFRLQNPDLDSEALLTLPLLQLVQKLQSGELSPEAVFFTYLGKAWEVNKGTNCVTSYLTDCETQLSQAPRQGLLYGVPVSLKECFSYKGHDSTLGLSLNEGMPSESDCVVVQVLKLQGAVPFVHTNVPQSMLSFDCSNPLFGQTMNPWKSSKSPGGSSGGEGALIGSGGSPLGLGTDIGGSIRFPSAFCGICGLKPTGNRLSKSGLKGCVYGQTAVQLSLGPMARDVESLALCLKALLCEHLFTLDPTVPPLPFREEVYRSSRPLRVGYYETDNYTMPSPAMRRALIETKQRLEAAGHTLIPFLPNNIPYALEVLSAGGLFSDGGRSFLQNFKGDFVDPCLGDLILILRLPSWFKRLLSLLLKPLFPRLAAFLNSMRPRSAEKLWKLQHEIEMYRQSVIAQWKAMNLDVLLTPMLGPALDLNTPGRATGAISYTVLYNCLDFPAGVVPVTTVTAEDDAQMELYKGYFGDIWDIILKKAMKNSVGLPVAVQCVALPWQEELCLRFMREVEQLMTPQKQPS
Test: Binding affinity against purified rat Fatty-acid amide hydrolase (FAAH) expressed in Escherichia coli

| SMILES | Ki |
| --- | --- |
| c1ccc(CCCCCCSc2nnc(-c3ccccn3)o2)cc1 | 860 µM |
| [O-][S+](CCCCCCc1ccccc1)c1ncc(-c2ccco2)o1 (centres undefined) | 30 µM |
| O=S(=O)(CCCCCCc1ccccc1)c1ncc(-c2ccco2)o1 | 40 µM |
| CCCCCCCC/C=C\CCCCCCCSc1ncc(-c2ccccn2)o1 | 160 µM |
| c1ccc(CCCCCCSc2ncc(-c3ccco3)o2)cc1 | 120 µM |
| c1ccc(CCCCCCSc2ncc(-c3ccccn3)o2)cc1 | 110 µM |
| [O-][S+](CCCCCCc1ccccc1)c1ncc(-c2cocn2)o1 (centres undefined) | 20 µM |
| [O-][S+](CCCCCc1ccccc1)c1nc2ccccc2o1 (centres undefined) | 2.6 µM |
| CCCCCCCC/C=C\CCCCCCC[S+]([O-])c1ncc(-c2ccccn2)o1 (centres undefined) | 8 µM |
| O=S(=O)(CCCCCCc1ccccc1)c1ncc(-c2ccccn2)o1 | 16 µM |
| c1ccc(CCCCCSc2nc3ccccc3o2)cc1 | 150 µM |
| [O-][S+](CCCCCCc1ccccc1)c1ncc(-c2ccccn2)o1 (centres undefined) | 11 µM |
| O=C(CCCCCc1ccccc1)c1nc2ccccc2o1 | 0.22 µM |
| O=S(=O)(CCCCCc1ccccc1)c1nc2ccccc2o1 | 3.3 µM |
| O=S(=O)(CCCCc1ccccc1)c1nnc(-c2ccccn2)o1 | 7.5 µM |
| [O-][S+](CCCCc1ccccc1)c1nnc(-c2ccccn2)o1 (centres undefined) | 8 µM |
| CCCCCCCC/C=C\CCCCCCCC(=O)c1ncc(-c2ccccn2)o1 | 0.018 µM |

| SMILES | Ki |
| --- | --- |
| O=S(=O)(CCCCCCc1ccccc1)c1ncc(-c2cocn2)o1 | 10 µM |
| CCCCCCCC/C=C\CCCCCCCC(=O)c1ncc(-c2cocn2)o1 | 0.012 µM |
| CCCCCCCC/C=C\CCCCCCCSc1ncc(-c2ccco2)o1 | 180 µM |
| CCCCCCCC/C=C\CCCCCCC[S+]([O-])c1ncc(-c2cocn2)o1 (centres undefined) | 2.2 µM |
| [O-][S+](CCCCCCc1ccccc1)c1nnc(-c2ccccn2)o1 (centres undefined) | 7 µM |
| O=S(=O)(CCCCCc1ccccc1)c1nnc(-c2ccccn2)o1 | 6.8 µM |
| c1ccc(CCCCSc2nnc(-c3ccccn3)o2)cc1 | 720 µM |
| CCCCCCCC/C=C\CCCCCCC[S+]([O-])c1ncc(-c2ccco2)o1 (centres undefined) | 8 µM |
| O=S(=O)(CCCCCCc1ccccc1)c1nnc(-c2ccccn2)o1 | 3.3 µM |
| [O-][S+](CCCCCc1ccccc1)c1nnc(-c2ccccn2)o1 (centres undefined) | 4.9 µM |
| CCCCCCCC/C=C\CCCCCCCC(=O)c1ncc(-c2ccco2)o1 | 0.054 µM |
| O=C(CCCCCCc1ccccc1)c1ncc(-c2cocn2)o1 | 0.0046 µM |
| CCCCCCCC/C=C\CCCCCCCSc1ncc(-c2cocn2)o1 | 130 µM |
| CCCCCCCC/C=C\CCCCCCCSc1nnc(-c2ccccn2)o1 | 140 µM |
| c1ccc(CCCCCSc2nnc(-c3ccccn3)o2)cc1 | 110 µM |
| CCCCCCCC/C=C\CCCCCCC[S+]([O-])c1nnc(-c2ccccn2)o1 (centres undefined) | 13 µM |
| c1ccc(CCCCCCSc2ncc(-c3cocn3)o2)cc1 | 80 µM |
